Like-named read-outs stand apart in the source and are kept apart here.
Experiments:
[1] = test system: iCell endothelial cells (human iPSC-derived ECs); assay: High-content imaging cytotoxicity in iCell endothelial cells, 24 h; type: cell-based; conditions: Homo sapiens, Endothelial cell; for viability at 0.1 µM / activity at 0.1 µM: 0.10 µM
Outline: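 Readouts were vehicle-normalised and fitted to a four-parameter logistic model. POD was set at one SD beyond 0.5% DMSO control means, and 100 µM was assigned when no response was seen. Cells were monolayers of iCell endothelial cells imaged after 24 h compound exposure using nuclear, mitochondrial and calcein dyes.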

HUVECs = assay: Tube formation (tubulogenesis) assay in HUVECs, 18 h; type: cell-based, human; conditions: for minimal effective concentration / activity at 0.01 µM / activity at 0.1 µM / activity at 1 µM / activity at 10 µM / activity at 100 µM: Homo sapiens, HUVEC, 18 h; for activity at 1 µM: concentration 1.00 µM; for activity at 10 µM: concentration 10.00 µM
Outline: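 HUVECs (passage 1–5) seeded on reduced-growth-factor basement membrane and exposed to compounds overnight at 37°C, 5% CO2, in 2× maintenance medium with 12.5 ng/mL VEGF; 0.5% DMSO vehicle. Calcein AM-stained tube networks imaged and analysed; vehicle-normalized readouts fit to four-parameter logistic, POD set at one SD of vehicle means.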

[2] = iPSC-EC, 0.00 µM = 100.00, read-out: endo.cyto.24hr
[3] = iPSC-EC, 0.00 µM = 100.00, read-out: endo.mito.24hr
[4] = iPSC-EC, 0.00 µM = 100.00, read-out: endo.mitoint.24hr
[5] = iPSC-EC, 0.00 µM = 100.00, read-out: endo.nma.24hr
[6] = iPSC-EC, 0.00 µM = 100.00, read-out: endo.tc.24hrs
[7] = HUVECs tube formation, 0.00 µM = 100.00, read-out: huvec.mtl.18hr
[8] = HUVECs tube formation, 0.00 µM = 100.00, read-out: huvec.tlps.18hr
[9] = HUVECs tube formation, 0.00 µM = 100.00, read-out: huvec.tta.18hr
[10] = HUVECs tube formation, 0.00 µM = 100.00, read-out: huvec.ttl.18hr

Clc1ccc(Cl)c(-c2c(Cl)ccc(Cl)c2Cl)c1Cl [(+)-PCB 136, 2,2′,3,3′,6,6′-hexachlorobiphenyl]
minimal effective concentration ([1]; endothelial cells (endo), nma, 24 hr, read-out: POD endo.nma.24hr): 100 µM | viability at 0.01 µM [1, 2]: 103% | activity at 0.01 µM [1, 3]: 103% | activity at 0.01 µM [1, 4]: 96.4% | activity at 0.01 µM [1, 5]: 102% | viability at 0.01 µM [1, 6]: 103% | viability at 0.1 µM [1, 2]: 103% | activity at 0.1 µM [1, 3]: 104% | activity at 0.1 µM [1, 4]: 95.5% | activity at 0.1 µM [1, 5]: 98.7% | viability at 0.1 µM [1, 6]: 103% | viability at 1 µM [1, 2]: 103% | activity at 1 µM [1, 3]: 103% | activity at 1 µM [1, 4]: 92.5% | activity at 1 µM [1, 5]: 98.5% | viability at 1 µM [1, 6]: 103% | viability at 10 µM [1, 2]: 101% | activity at 10 µM [1, 3]: 102% | activity at 10 µM [1, 4]: 92.2% | activity at 10 µM [1, 5]: 99.4% | viability at 10 µM [1, 6]: 101% | viability at 100 µM [1, 2]: 46.7% | activity at 100 µM [1, 3]: 41.6% | activity at 100 µM [1, 4]: 51.5% | activity at 100 µM [1, 5]: 104% | viability at 100 µM [1, 6]: 50.8% | minimal effective concentration ([1]; iPSC-EC, 100.00 = highest concentration tested, read-out: endo.nma.24hr POD): 100 µM | huvec.tta.18hr (HUVECs; HUVECs tube formation, concentration 0.01 µM, 0.00 µM = 100.00): 108.86 | huvec.tlps.18hr (HUVECs; HUVECs tube formation, concentration 0.10 µM, 0.00 µM = 100.00): 71.77 | huvec.tta.18hr (HUVECs; HUVECs tube formation, concentration 100.00 µM, 0.00 µM = 100.00): 92.04 | minimal effective concentration (HUVECs; tube formation mtl, read-out: POD huvec.mtl.18hr): 13.4 µM | minimal effective concentration (HUVECs; tube formation tta, read-out: POD huvec.tta.18hr): 100 µM | minimal effective concentration (HUVECs; tube formation ttl, read-out: POD huvec.ttl.18hr): 100 µM | minimal effective concentration (HUVECs; HUVECs tube formation, MAX 100.00, read-out: huvec.mtl.18hr POD): 13.4 µM | minimal effective concentration (HUVECs; HUVECs tube formation, MAX 100.00, read-out: huvec.tta.18hr POD): 100 µM | minimal effective concentration (HUVECs; HUVECs tube formation, MAX 100.00, read-out: huvec.ttl.18hr POD): 100 µM | activity at 0.01 µM (HUVECs; HUVECs tube formation, concentration 0.01 µM, 0.00 µM = 100.00, read-out: huvec.mtl.18hr): 92.2% | activity at 0.01 µM (HUVECs; HUVECs tube formation, concentration 0.01 µM, 0.00 µM = 100.00, read-out: huvec.tlps.18hr): 82.7% | activity at 0.01 µM (HUVECs; HUVECs tube formation, concentration 0.01 µM, 0.00 µM = 100.00, read-out: huvec.ttl.18hr): 105% | activity at 0.1 µM (HUVECs; HUVECs tube formation, concentration 0.10 µM, 0.00 µM = 100.00, read-out: huvec.mtl.18hr): 93.1% | activity at 0.1 µM (HUVECs; HUVECs tube formation, concentration 0.10 µM, 0.00 µM = 100.00, read-out: huvec.tta.18hr): 107% | activity at 0.1 µM (HUVECs; HUVECs tube formation, concentration 0.10 µM, 0.00 µM = 100.00, read-out: huvec.ttl.18hr): 105% | activity at 1 µM (HUVECs; [7]): 96.3% | activity at 1 µM (HUVECs; [8]): 98.7% | activity at 1 µM (HUVECs; [9]): 102% | activity at 1 µM (HUVECs; [10]): 99.6% | activity at 10 µM (HUVECs; [7]): 92.5% | activity at 10 µM (HUVECs; [8]): 100% | activity at 10 µM (HUVECs; [9]): 112% | activity at 10 µM (HUVECs; [10]): 104% | activity at 100 µM (HUVECs; HUVECs tube formation, concentration 100.00 µM, 0.00 µM = 100.00, read-out: huvec.mtl.18hr): 64.5% | activity at 100 µM (HUVECs; HUVECs tube formation, concentration 100.00 µM, 0.00 µM = 100.00, read-out: huvec.tlps.18hr): 73.3% | activity at 100 µM (HUVECs; HUVECs tube formation, concentration 100.00 µM, 0.00 µM = 100.00, read-out: huvec.ttl.18hr): 83.9%
